# In PubChem BioAssay (NCI):
# “And” between values parts separate entries of the source, which are not always exact repeats. Equal entries are not always repeated.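 The compound was tested at five concentrations on cells cultured in 96-well plates, with a 48-hour exposure period. At the GI50, growth is halved. Definition used: TGI = concentration required for complete inhibition of growth.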
# Experiments:
# Assay in all cases: NCI tumour cell line growth inhibition, 48 h
# [1] = system: LXFL 529 NSCLC
# [2] = system: XF 498 CNS
# [3] = system: HOP-18 NSCLC
# [4] = system: MCF7 breast
# [5] = system: MDA-MB-435
# [6] = system: T-47D breast
# [7] = system: HS 578T breast
# [8] = system: MDA-N
Structure (SMILES),TGI [1] [µM],TGI [2] [µM],TGI [3] [µM],GI50 [4],TGI [4],GI50 [5],TGI [5],GI50 [6],TGI [6],GI50 [7],TGI [7] [µM],TGI [8] [µM],GI50 [1] [µM],GI50 [3] [µM],GI50 [2] [µM]
O=C1CCCC1NC(=O)C(F)(F)F (stereo not given),> 100,> 100,,,,,,,,,,,,,
CCOC(=O)NC(=O)c1cn(CCN2CCN(C(=O)NCCCCCCNC(=O)N3CCN(CCn4cc(C(=O)NC(=O)OCC)c(=O)n(CCN(CC)CC)c4=O)CC3)CC2)c(=O)n(CCC(CC)CC)c1=O,> 100,,> 100,,,,,,,,,,,,
N#Cc1nc2cc(F)c(F)cc2nc1-c1ccc(Cl)cc1,,,,13100 nM,> 100 µM,17500 nM,39.1 µM,20.9 µM,> 62.1 µM,1.72 µM,4.43,,,,
Clc1ccc(SCCCCCCCCCCSc2ccc(Cl)cc2)cc1,> 100,> 100,> 100,,,,,,,,,,,,
CC1=C(C(=O)Nc2ccc(F)c(Cl)c2)C(c2cccc(Oc3ccccc3)c2)NC(=O)N1 (stereo not given),,,,17600 nM,43.7 µM,18800 nM,39.8 µM,15.7 µM,34.6 µM,12.2 µM,32.9,,,,
CCCCCCCCCCCC[n+]1ccc(C(N)=O)cc1,,,,3700 nM,15.4 µM,3170 nM,14.9 µM,3.06 µM,11.8 µM,2.55 µM,8.49,,,,
O=C1C[C@H]2CC3(CC[C@H]2CN1)OCCO3,> 100,> 100,,,,,,,,,,,,,
CS(=O)(=O)Nc1cc(-c2ccc3ncnc(Nc4ccc5c(cnn5Cc5ccccc5F)c4)c3c2)cnc1Cl,,,,1480 nM,30.3 µM,2350 nM,8.32 µM,0.367 µM,3.14 µM,0.249 µM,1.84,,,,
CCOC1C=CCCO1 (stereo not given),,,,,> 100 µM,,> 100 µM,,> 100 µM,,> 100,> 100,,,
NCCCCN(Cc1nc2ccccc2[nH]1)[C@H]1CCCc2cccnc21,,,,17800 nM,> 72.7 µM,17400 nM,54.6 µM,21.4 µM,> 100 µM,19 µM,> 91.4,,,,
CN(C)c1ccc(O)c2c1C[C@H]1C[C@H]3[C@H](N(C)C)C(=O)C(C(N)=O)=C(O)[C@@]3(O)C(=O)C1=C2O,,,,10100 nM,> 100 µM,5180 nM,33.2 µM,5.29 µM,> 100 µM,3.36 µM,34.2,,,,
C[CH2][Sn]([CH2]C)([O]C(=O)c1cccc(F)c1)[O][Sn]([CH2]C)([CH2]C)[O]C(=O)c1cccc(F)c1,22.4,29.8,32.5,,,,,,,,,,10.4,18.5,16.2
COc1ccc(/C=C/C(=O)c2cc3c(N)c(C(=O)Nc4ccccc4)sc3nc2C)cc1,,,,128 nM,> 50 µM,,,0.33 µM,> 50 µM,0.153 µM,> 50,,,,
S=C(Nc1ccccc1)N(Cc1ccccc1)c1ccccc1,,,,,> 100 µM,,49.5 µM,,> 100 µM,,> 100,,,,
CCOC(=O)C#Cc1c(CC(=O)OCC)nnn1[C@H]1O[C@@H](CO)[C@@H]2OC(C)(C)O[C@@H]21,,,,3150 nM,14.9 µM,5400 nM,18.3 µM,2.78 µM,7.55 µM,25.9 µM,72.2,,,,
N=C(N)c1ccc(-c2ccc(-c3cccs3)s2)nc1,,,,1320 nM,3.3 µM,1740 nM,3.42 µM,2.06 µM,5.57 µM,1.55 µM,4.66,,,,
CC1/C(=N/Nc2ccc([N+](=O)[O-])cc2)CC2C3(C)CCC2(C(C)C(=O)O)C(=O)C13 (stereo not given),,,,7170 nM,> 100 µM,27400 nM,> 100 µM,4.14 µM,> 100 µM,3.55 µM,> 100,,,,
CC(C)CCc1c(Cl)nc(Cl)nc1Cl,,,,,40.7 µM,,32.2 µM,,,,56.8,21.4,,,
OC(CNC1CCCC1)Cn1c2ccccc2c2ccccc21 (stereo not given),,,,> 100000 nM,> 100 µM,> 100000 nM,> 100 µM,33.9 µM,> 100 µM,21.8 µM,83.7,,,,

Structure (SMILES),TGI [1] [µM],TGI [2] [µM],TGI [3] [µM],GI50 [4],TGI [4],GI50 [5],TGI [5],GI50 [6],TGI [6],GI50 [7],TGI [7] [µM],TGI [8] [µM],GI50 [1] [µM],GI50 [3] [µM],GI50 [2] [µM]
CCCCCN(CCCCC)CC(O)c1cc2c(c3ccccc13)CCCC2 (stereo not given),,,,3650 nM and 4630 nM,14.1 µM and 16.7 µM,7680 nM and 13200 nM,21.9 µM and 36.5 µM,3.04 µM and 7.77 µM,14.2 µM and 25.7 µM,8.51 µM,23.9,,,,
Cc1ccc(C2=C(c3ccccc3)C(Br)(c3ccccc3)C(c3ccccc3)=C2c2ccc(C)cc2)cc1,> 100,> 100,> 100,,,,,,,,,,,,
COC(=O)[C@@]1(O)C[C@H]2O[C@]1(C)n1c3ccccc3c3c4c(c5c6ccccc6n2c5c31)C(=O)NC4,,,,194 nM,4.34 µM,74.5 nM,1.6 µM,0.0805 µM,2.05 µM,0.248 µM,2.06,,,,
N#CC1=C(N)Oc2c(sc3c(F)cccc23)C1c1ccc(F)cc1 (stereo not given),,,,391 nM,12.4 µM,212 nM,0.631 µM,0.61 µM,26.9 µM,0.414 µM,11.4,,,,
COCCNC(=O)c1ccc(-c2nc3ccc4[nH]ncc4c3c3c2CCCC3)cc1,,,,2520 nM,20.4 µM,2830 nM,> 100 µM,1.97 µM,16.3 µM,0.88 µM,4.68,,,,
C[C@@H]1C[C@@]2(O[C@@H]2C)C(=O)O[C@@H]2CCN3CC=C(COC(=O)[C@]1(C)O)[C@H]23,,,,,> 100 µM,,> 100 µM,,> 100 µM,,> 100,> 100,,,
CSC1C(=O)c2ccccc2/C(=N/Nc2nc3ccccc3s2)C1C (stereo not given),,,,5520 nM,34.7 µM,9380 nM,19.8 µM,8.65 µM,> 50 µM,7.26 µM,27.9,,,,
O=C1C(=O)c2ccccc2C(O)=C1CCCCCCCCC1CCCCC1,,,,,19.4 µM,,17.2 µM,,21.5 µM,,39.6,17.9,,,
Clc1ccc2c(c1)-c1ccccc1C1=NCCN12,,,,2180 nM,8.58 µM,2040 nM,5.76 µM,2.73 µM,8.27 µM,2.92 µM,11.8,,,,
C/C(=N\O)C(CN1CCCCC1)C(c1ccccc1)c1c(O)c2ccccc2oc1=O (stereo not given),> 100,> 100,,,,,,,,,,,,,
COc1cc(/C=C/C(=O)c2c(C)n([O-])c3ccc(Cl)cc3[n+]2=O)cc(OC)c1OC,,,,57000 nM,> 100 µM,> 100000 nM,> 100 µM,40.5 µM,> 100 µM,12.4 µM,64.3,,,,
O=C(CCCCCCC(=O)Nc1ccc2c(c1)/C(=C/c1ccc[nH]1)C(=O)N2)NO,,,,437 nM,> 69.6 µM,332 nM,4.57 µM,,,1.01 µM,> 100,,,,
Cc1nn(-c2nc3ccccc3[nH]2)c2c1C(c1ccc3c(c1)OCO3)CC(=O)N2 (stereo not given),,,,2980 nM,> 30.1 µM,2460 nM,6.3 µM,3.61 µM,> 39.6 µM,2.93 µM,13.5,,,,
O=C(N/N=C\c1ccc(N(CCCl)CCCl)cc1Cl)c1cccnc1,,,,1390 nM,> 82.6 µM,17100 nM,46.1 µM,2.8 µM,20 µM,31.7 µM,> 94,,,,
c1ccc(SC(CCCCOC2CCCCO2)Sc2ccccc2)cc1 (stereo not given),> 100,> 100,,,,,,,,,,,,,
OC(CNc1ccnc2cc(Cl)ccc12)CNC1CCCCC1 (stereo not given),,,,7360 nM,21.9 µM,1700 nM,3.28 µM,4.54 µM,18.7 µM,4.95 µM,23.8,,,,
NC(CCSC(F)F)C(=O)O (stereo not given),> 100,> 100,,,,,,,,,,,,,
Cc1cccc2c1C(=O)OC2(C)c1cccc2ccccc12 (stereo not given),,86,> 100,,,,,,,,,,,,
O=C1c2c(nc3ccccc3c2-c2ccccc2)CN1Nc1ccccc1,> 100,> 100,,,,,,,,,,,,,

Structure (SMILES),TGI [1] [µM],TGI [2] [µM],TGI [3] [µM],GI50 [4],TGI [4],GI50 [5],TGI [5],GI50 [6],TGI [6],GI50 [7],TGI [7] [µM],TGI [8] [µM],GI50 [1] [µM],GI50 [3] [µM],GI50 [2] [µM]
COc1ccccc1/C=N/N=C(\N)NO,> 100,,> 100,,,,,,,,,,,,
COc1cc(-c2oc3c(OC)c(O)c(OC)c(O)c3c(=O)c2OC)ccc1O,,,,,> 100 µM,,49.1 µM,,67.1 µM,,40.1,> 100,,,
O=C(/C=C/c1ccc(C(F)(F)F)cc1)c1ccc(Nc2nc(NCCO)nc(N3CCOCC3)n2)cc1,,,,1250 nM,3.95 µM,2230 nM,5.35 µM,2.28 µM,7.77 µM,2.61 µM,,,,,
COc1cc([N+](=O)[O-])c(OC)cc1-c1nc2sc(Cl)cn2c1/C=N/NC(=N)N/N=C/c1c(-c2cc(OC)c([N+](=O)[O-])cc2OC)nc2sc(Cl)cn12,,,,,,,,1.98 µM,5.07 µM,,,,,,
C=CC(=O)Nc1cccc(C)c1Nc1ncc2cc(-c3c(Cl)c(OC)cc(OC)c3Cl)ccc2n1,,,,1970 nM,> 100 µM,4140 nM,17.4 µM,1.64 µM,> 100 µM,13.8 µM,> 100,,,,
CC(=O)c1c[nH]cc1CO,,,,,> 10 µM,,,,> 10 µM,,,> 10,,,
Clc1nc(Cl)c(Cc2ccccc2)c(Cl)n1,,,,,21.4 µM,,19 µM,,42.4 µM,,19.9,12.5,,,
O=C(NCP(=O)(O)O)c1cccnc1,,,,,> 100 µM,,> 100 µM,,> 100 µM,,,> 100,,,
COC(=O)[C@@H](C)C[C@H](Cc1ccccc1)NC(=O)c1csc([C@@H](C[C@H](C(C)C)N(C)C(=O)C2(NC(=O)[C@H]3CCCCN3C)CC2)OC(C)=O)n1,,,,0.612 nM and 3.33 nM,> 33.3 µM,0.405 nM and < 3.33 nM,0.00273 µM and < 0.00333 µM,0.00333 µM,> 33.3 µM,0.0191 µM,,,,,
C=C1CC[C@@H]2[C@](C)(COC(C)=O)[C@H](OC(C)=O)CC[C@@]2(C)[C@@H]1C/C=C1/C(=O)OC[C@H]1OC(C)=O,,,,1830 nM,6.79 µM,2630 nM,10.1 µM,2.86 µM,13.8 µM,12.3 µM,55.3,,,,
N#C[S-].[Au+].c1ccc(CN2[CH-]N(Cc3ccccc3)C(c3ccccc3)=C2c2ccccc2)cc1,,,,,,492 nM,1.74 µM,,,0.744 µM,4.62,,,,
CN(C)CCNC(=O)c1cc2c3ccccc3[nH]c2c2ncccc12,,,,4530 nM,20.9 µM,2890 nM,15.4 µM,18.4 µM,> 100 µM,3.57 µM,28.1,,,,
CN1CCn2c(c(Sc3ccc(C(=O)NO)cc3)c3ccccc32)C1=O,,,,2800 nM,> 77.1 µM,,,1.53 µM,3.91 µM,2.41 µM,> 29,,,,
C=C1C(=O)O[C@H]2[C@H]1CC/C(CNS(=O)(=O)c1cccc3ccccc13)=C\CC[C@@]1(C)O[C@@H]21,,,,1360 nM,3.14 µM,1600 nM,3.42 µM,1.96 µM,6.51 µM,3.46 µM,18.4,,,,
Cc1ccc(S(=O)(=O)Nc2nc3ccccc3nc2Nc2ccc3nsnc3c2)cc1,,,,6550 nM and 4600 nM,> 100 µM,4090 nM and 3150 nM,> 100 µM,3.34 µM and 3.47 µM,> 100 µM,5.62 µM and 4.21 µM,> 100,,,,
COc1ccc2c(c1)OC(N)=C(C#N)C2c1ccc(F)cc1 (stereo not given),,,,522 nM,> 100 µM,220 nM,0.601 µM,3.78 µM,> 100 µM,3.84 µM,> 100,,,,
OCCNCCNc1c2ccccc2nc2oc3ccccc3c12,,,,6010 nM,29.2 µM,11500 nM,29.3 µM,11.7 µM,38.4 µM,6.8 µM,24.1,,,,
Oc1ccc(N=Nc2ccc(N=Nc3ccccc3)cc2)cc1,,,,1500 nM,6.86 µM,2960 nM,14.7 µM,1.61 µM,6.73 µM,12.4 µM,51,,,,
CCCN(CCC)C(=O)[C@H](CC)[C@@H]1CC[C@@H](C)[C@@H]([C@H](C)[C@@H](O)[C@@H](C)C(=O)[C@H](CC)C2O[C@]3(C=C[C@@H](O)[C@]4(CC[C@@](C)([C@H]5CC[C@](O)(CC)[C@H](C)O5)O4)O3)[C@H](C)C[C@@H]2C)O1 (stereo not given in full),,,,2460 nM,7.76 µM,2960 nM,9.71 µM,3.08 µM,14.5 µM,2.75 µM,9.01,,,,
